Assay results from PMC8032624, “Prediction of dose-dependent in vivo acetylcholinesterase inhibition by profenofos in rats and humans using physiologically based kinetic (PBK) modeling-facilitated reverse dosimetry” (Archives of Toxicology, 2021).

Columns and labels:
[1] = system: brain AChE; experiment: In vivo brain AChE inhibition in rats, single exposure (JMPR); conditions: rat
From the text: To evaluate the performance of the PBK modeling-facilitated reverse dosimetry approach to predict in vivo AChE inhibition, the predicted dose–response curve for rat AChE inhibition upon exposure to profenofos was compared with available in vivo data on AChE inhibition in rats (JMPR [2007]). Furthermore, the predicted dose–response data were used for BMD modeling, using EFSA PROAST version 69.0 (https://shiny-efsa.openanalytics.eu/app/bmd) using the model averaging approach to allow evaluation of the prediction by comparison of BMDL10 values obtained from the predicted dose–response data to points of departure derived by regulatory bodies (EPA [2016]; JMPR [2007], EFSA [2019]). To that end, the obtained BMDL10 values were compared with a reported BMDL10 value from a rat study on profenofos-induced RBC AChE inhibition, which was recently used to obtain an ARfD by the US EPA (EPA [2016]), and a reported NOAEL value on profenofos-induced rat brain acetylcholinesterase inhibition, which has been used to obtain an ARfD by JMPR ([2007]).

[2] = system: brain cholinesterase; conditions: based on NOAEL in a dog study, brain cholinesterase inhibition; ref EFSA [2019]; cited from earlier work
[3] = in vitro; type: in vitro ADME, human; conditions: for Vmax / Km: conversion of profenofos to BCP; for Km: pH 7.4
Experimental: Incubations of profenofos with rat and human liver microsomes, liver cytosol and plasma were performed to quantify in vitro rates of BCP formation. Conditions were optimized to be linear for metabolite formation with regard to incubation time and microsomal, cytosolic and plasma protein concentration (data not shown). The final incubations were carried out in 100 mM Tris HCl (pH 7.4, 37 °C) containing (final concentrations) 5 mM MgCl2, 2 mM CaCl2 [to stimulate PON1 activity (Carr et al. [2015])], 2 mM NADPH (cofactor to also include CYP-mediated metabolism), enzyme preparation (final concentration 2 mg/ml for human liver microsomes and cytosol and 4.4 mg/ml for human plasma; 0.5 mg/ml for rat microsomes and cytosol and 1.65 mg/ml for rat plasma) and profenofos (at final concentrations ranging from 1 to 100 μM, added from 100 times concentrated stock solutions in DMSO). Control incubations were performed in the absence of microsomes, cytosol or plasma. After 2 min pre-incubation, the reaction was initiated by adding the substrate and mixtures were incubated for 2 min in a 37 °C water bath. The total volume of the incubation mixtures was 200 μl. The reaction was terminated by the addition of 50 μl ice cold ACN and samples were kept on ice. The mixture was centrifuged at 14,000g for 20 min at 4 °C and the supernatant was analyzed using UPLC-UV.
All samples from incubations were analyzed using a Waters Acquity UPLC H class system that consisted of a quaternary solvent manager, a sample manager, and a photodiode array (PDA) detector, equipped with a Water Acquity UPLC® BEH C18 column (1.7 μm, 2.1 × 50 mm) and Waters Xbridge UPLC® BEH C18 pre-column (2.5 μM, 2.1 × 5 mm). The temperature of the column was kept at 40 °C and the auto sampler at 10 °C during the UPLC analysis. The mobile phases used for the analysis consisted of (A) 0.1% TFA in nanopure water and (B) 100% ACN. A gradient elution at a flow rate of 0.6 ml/min was applied for the analysis with the initial condition of 100% A:0% B (v/v), changing in a linear way to 0% A:100% B from 0 to 6 min, which was maintained for 30 s, and then changed back to the initial conditions in 30 s, which were maintained for 1 min. The injection volume for each sample was 3.5 μl.
Under these conditions, the retention times of profenofos and BCP were 4.76 and 3.37 min, respectively. The amounts of profenofos and BCP were quantified by integrating the peak areas at 237 nm using calibration curves that were prepared using commercially available standards.
Kinetic parameters including the apparent maximum velocity (Vmax) and the apparent Michaelis–Menten constant (Km) for BCP formation were obtained by fitting the data for the substrate concentration-dependent rate of conversion (expressed in nmol/min/mg protein) using GraphPad Prism 5, version 5.04 (San Diego, California, USA) to the standard Michaelis–Menten equation: V=Vmax∗S/(Km+S) in which the S represents the concentration of substrate, expressed in μM, V and Vmax the velocity and the maximum velocity of the reaction, respectively, expressed in nmol/min/mg protein, and Km the apparent Michaelis–Menten constant, expressed in μM. The kinetic parameter values for conversion of profenofos to BCP in the liver microsomes, liver cytosol and plasma were determined. To determine the catalytic efficiency, Vmax was divided by the Km.

[4] = system: RBC AChE; conditions: adult rats, single exposure; ref EPA [2016]; cited from earlier work
[5] = system: AChE; experiment: PBK modeling-facilitated reverse dosimetry and BMD modelling of predicted AChE inhibition in humans; design: species or system human
From the text: In the present study, it was assumed that in vivo dose-dependent AChE inhibition (in blood) depends on the maximum concentration (Cmax) of profenofos reached in the blood. For adequate PBK modeling-facilitated reverse dosimetry, the active (unbound) concentration of a test chemical in the in vitro test system should be linked to the in vivo freely available chemical at the target site. This is important since it is assumed that it is the fraction unbound that causes the effect (AChE inhibition). In the in vitro incubations, a very low concentration of BSA (0.1 mg/mL) is present. Heilmair et al. ([2008]) reported that with such low BSA concentrations, the free concentration of chlorpyrifos oxon is not affected. Furthermore, Rosenfeld and Sultatos ([2006]) found no evidence of binding of paraoxon by BSA even at a higher concentration (1 mg/ml) during incubations. Based on these observations, no significant effect on the free fraction of profenofos in the in vitro AChE inhibition studies is expected, which corroborated with estimations on profenofos binding in the in vitro incubations with help of the online simcyp tool (https://www.certara.com/software/pbpk-modeling-and-simulation/).
By calculating with the PBK model, the external dose required to reach (as unbound Cmax) the concentrations applied in the in vitro test, each in vitro concentration was translated into an in vivo dose. […]

## CCCSP(=O)(OCC)Oc1ccc(Br)cc1Cl (stereo not shown) [profenofos, O-(4-bromo-2-chlorophenyl) O-ethyl S-propyl phosphorothioate]
[1]
  JMPR NOAEL relative to US EPA BMDL10: 50 fold
[2]
  ARfD: 0.005 mg/kg bw
[3]; human liver cytosol
  Vmax: 1.1 nmol/min/mg cytosolic protein
  Km: 1.4 µM
[3]; human liver microsomes
  Vmax: 1.2 nmol/min/mg microsomal protein
  Km: 6.9 µM
[3]; human plasma
  Vmax: 0.99 nmol/min/mg plasma protein
  Km: 158 µM
[3]; human vs rat liver cytosol
  Catalytic efficiency, fold lower for human than rat liver cytosol: 3.8 fold
  Km, fold higher for human than rat liver cytosol: 4.1 fold
  Vmax, fold higher for human than rat liver cytosol: 1.1 fold
[3]; human vs rat liver microsomes
  Catalytic efficiency, fold lower in human than rat liver microsomes: 6.5 fold
  Km, fold lower in human than rat liver microsomes: 1.2 fold
  Vmax, fold lower in human than rat liver microsomes: 7.7 fold
[3]; human vs rat plasma
  Catalytic efficiency, fold lower for human than rat plasma: 32 fold
  Km, fold higher for human than rat plasma: 44 fold
  Vmax, fold higher for human than rat plasma: 1.5 fold
[4]
  BMDL10 for RBC AChE inhibition: 1.99 mg/kg bw
[5]
  Interspecies difference in predicted BMDL10 (rat vs human): 45 fold
